The record followed here is PubChem BioAssay (NCI).

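1) Cells in 96-well plates. 2) Compound, 48 h, 5 concentrations. 3) Linear interpolation between surrounding doses. 4) Unreached endpoint = highest concentration. The concentration for 50% growth inhibition is given as GI50. At the TGI there is no net growth.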

Test systems include SK-MEL-2 melanoma; MCF7 breast; SNB-19 CNS; UACC-257 melanoma; DU-145 prostate; MALME-3M melanoma; HCC-2998 colon; HCT-15 colon; EKVX NSCLC; A498 renal.
Common to all, as to test: NCI tumour cell line growth inhibition, 48 h

Regarding `C[C@@]1(c2ncncc2F)NC(=O)c2cc(-c3cn[nH]c3)ccc21`, the GI50 in the assay with SK-MEL-2 melanoma was 23.8 µM; with MCF7 breast, 21 µM; in the assay on SNB-19 CNS it was 31.9 µM; in the assay with UACC-257 melanoma, 30.3 µM; with DU-145 prostate it was 28.8 µM; in the assay on MALME-3M melanoma it was 12.9 µM. Further, the GI50 in the assay with HCC-2998 colon was 22.9 µM; with HCT-15 colon, 20.8 µM; in the assay on EKVX NSCLC, 22.1 µM; in the assay on A498 renal, 14.4 µM. Moreover, the TGI in the assay on SK-MEL-2 melanoma was 68.2 µM; in the assay with MCF7 breast, above 100 µM; with SNB-19 CNS it was above 100 µM; with UACC-257 melanoma it was 98.7 µM; in the assay on DU-145 prostate it was above 100 µM; in the assay with MALME-3M melanoma, 68.4 µM. The TGI is above 100 µM in the assay with HCC-2998 colon, above 100 µM in the assay on HCT-15 colon, above 100 µM with EKVX NSCLC and 50.5 µM with A498 renal.
On to `CS(=O)c1ccc(-c2nc(-c3ccc(F)cc3)c(-c3ccncc3)[nH]2)cc1` (stereo not drawn), for which the GI50 in the assay with SK-MEL-2 melanoma was 23 µM; in the assay with MCF7 breast, 33.6 µM; in the assay with SNB-19 CNS, above 77.3 µM; with UACC-257 melanoma it was 16.3 µM; in the assay on DU-145 prostate, 31.7 µM; in the assay on MALME-3M melanoma it was 14.2 µM. Besides, the GI50 in the assay with HCC-2998 colon is 33.6 µM; in the assay with HCT-15 colon, 30.2 µM; in the assay on EKVX NSCLC it was 49 µM; with A498 renal, 10.6 µM. For the same molecule, the TGI in the assay with SK-MEL-2 melanoma is 49.4 µM; with MCF7 breast, above 100 µM; with SNB-19 CNS it was above 100 µM; with UACC-257 melanoma, 41.6 µM; in the assay with DU-145 prostate, above 100 µM; in the assay on MALME-3M melanoma, 64.9 µM. For the same molecule, the TGI in the assay with HCC-2998 colon is above 89.7 µM; with HCT-15 colon, above 100 µM; in the assay with EKVX NSCLC it was above 100 µM; in the assay on A498 renal, 53.5 µM.
As for `O=C(Nc1cccc2cccnc12)c1ccc(N2C(=O)[C@@H]3[C@H](C2=O)[C@@H]2C=C[C@H]3C2)cc1`, the GI50 in the assay with SK-MEL-2 melanoma is 27 µM; in the assay on MCF7 breast it was 25.1 µM; in the assay with SNB-19 CNS, 41.6 µM; in the assay on UACC-257 melanoma it was 30.5 µM; in the assay with DU-145 prostate it was 29.9 µM; in the assay with MALME-3M melanoma it was 21.5 µM. Also, the GI50 with HCC-2998 colon was 35.4 µM; with HCT-15 colon, 30.7 µM; with EKVX NSCLC, 32.2 µM; in the assay with A498 renal, 14.5 µM. For the same molecule, the TGI in the assay with SK-MEL-2 melanoma is 80.1 µM; in the assay on MCF7 breast it was above 100 µM; in the assay on SNB-19 CNS it was above 100 µM; in the assay with UACC-257 melanoma, above 100 µM; in the assay on DU-145 prostate it was above 100 µM; in the assay on MALME-3M melanoma it was above 100 µM. Also, the TGI in the assay with HCC-2998 colon is above 100 µM; in the assay with HCT-15 colon it was above 100 µM; in the assay on EKVX NSCLC, above 100 µM; with A498 renal, above 93.2 µM.
Take `O=C1NC(=O)C2(CCC(O)C2)c2cc[n+]([O-])cc21` (stereo not drawn): the TGI with SK-MEL-2 melanoma, in the assay on MCF7 breast, in the assay with SNB-19 CNS, in the assay with UACC-257 melanoma, in the assay with DU-145 prostate and with MALME-3M melanoma was above 100 µM throughout. Besides, the TGI with HCC-2998 colon, in the assay with HCT-15 colon, in the assay with EKVX NSCLC and in the assay with A498 renal was above 100 µM each time.
For the molecule `O=C(c1ccco1)c1c(C(F)(F)F)nc2cc(C(F)(F)F)ccc2[n+]1[O-]`, the GI50 in the assay with SK-MEL-2 melanoma is 69.3 µM; in the assay with MCF7 breast it was 35.3 µM; with SNB-19 CNS, 40.7 µM; with UACC-257 melanoma, above 100 µM; in the assay with DU-145 prostate it was 45.1 µM; with MALME-3M melanoma, 54.2 µM. Also, the GI50 in the assay on HCC-2998 colon is above 100 µM; with HCT-15 colon it was above 100 µM; with EKVX NSCLC, 50.6 µM; in the assay on A498 renal, 20.5 µM. Also, the TGI in the assay on SK-MEL-2 melanoma, in the assay with MCF7 breast, with SNB-19 CNS, in the assay on UACC-257 melanoma, in the assay on DU-145 prostate and in the assay with MALME-3M melanoma was above 100 µM throughout. In addition, the TGI with HCC-2998 colon is above 100 µM; with HCT-15 colon, above 100 µM; with EKVX NSCLC, above 100 µM; with A498 renal, 63.8 µM.
For `COc1cc(-c2nc(SCC(=O)Nc3ccc(C(C)=O)cc3)[nH]c(=O)c2C#N)cc(OC)c1OC`, the GI50 with MCF7 breast is 40 µM; with SNB-19 CNS, 64 µM; in the assay on UACC-257 melanoma it was 97.4 µM; in the assay on DU-145 prostate, 62.6 µM; in the assay on MALME-3M melanoma it was 48.1 µM; in the assay on HCC-2998 colon it was above 100 µM. In addition, the GI50 in the assay on HCT-15 colon is above 100 µM; in the assay on EKVX NSCLC, above 100 µM; with A498 renal it was 21.3 µM. Moreover, the TGI in the assay on MCF7 breast, in the assay with SNB-19 CNS, in the assay with UACC-257 melanoma, in the assay with DU-145 prostate, with MALME-3M melanoma and in the assay on HCC-2998 colon was above 100 µM each time. In addition, the values for the TGI in the assay on HCT-15 colon, in the assay with EKVX NSCLC and with A498 renal were above 100 µM, above 100 µM and 85 µM, respectively.
Regarding `CCCCCC(=O)OCC(=O)O[C@@H]1C[C@]2(C(C)C)O[C@@]1(C)[C@@H]1CC[C@@H](C)[C@H]1[C@@H]2OC(=O)/C=C/c1ccccc1`, the GI50 in the assay with SK-MEL-2 melanoma is above 58.2 µM; in the assay with MCF7 breast it was above 32.9 µM; in the assay on SNB-19 CNS, above 75.3 µM; with UACC-257 melanoma it was above 55.7 µM; in the assay with DU-145 prostate, above 48.4 µM; in the assay with MALME-3M melanoma, above 35.4 µM. Further, the GI50 with HCC-2998 colon is above 62.3 µM; in the assay with HCT-15 colon, above 34.3 µM; in the assay with EKVX NSCLC, above 54.5 µM; in the assay with A498 renal it was 0.0525 µM. For the same molecule, the TGI in the assay with SK-MEL-2 melanoma was above 81 µM; with MCF7 breast, above 100 µM; with SNB-19 CNS, above 100 µM; in the assay on UACC-257 melanoma it was above 89.2 µM; in the assay with DU-145 prostate it was above 72.4 µM; in the assay on MALME-3M melanoma, above 57 µM. Also, the TGI with HCC-2998 colon is above 100 µM; with HCT-15 colon it was above 70 µM; in the assay with EKVX NSCLC, above 100 µM; in the assay on A498 renal it was 0.306 µM.
Turning to `C#CCOc1ccc2ncnc(Nc3ccc(NC(=O)CCl)cc3)c2c1`, the GI50 was 12.6 µM with SK-MEL-2 melanoma; 3.61 µM with MCF7 breast; 8.43 µM in the assay with SNB-19 CNS; 15.5 µM in the assay on UACC-257 melanoma; 11.7 µM with DU-145 prostate; 4.58 µM in the assay with MALME-3M melanoma. In addition, the GI50 in the assay with HCC-2998 colon was 13.7 µM; with HCT-15 colon it was 2.96 µM; in the assay with EKVX NSCLC, 10.9 µM; with A498 renal it was 10.6 µM. Further, the TGI in the assay on SK-MEL-2 melanoma is 57.3 µM; with MCF7 breast it was 15.9 µM; in the assay with SNB-19 CNS it was 22.3 µM; in the assay on UACC-257 melanoma it was 38.4 µM; with DU-145 prostate, 24 µM; in the assay with MALME-3M melanoma, 18.1 µM. The TGI in the assay on HCC-2998 colon came out at 27.1 µM; in the assay with HCT-15 colon, 19.2 µM; with EKVX NSCLC, 33.2 µM; in the assay with A498 renal, 24 µM.
